Test results taken from US11617726B2, “Method for preventing, treating, or ameliorating a microbial infection” (priority 2018, dated 2023).

Tested on: Multidrug Resistant Acinetobacter baumannii Isolates
Assay: MIC of the micro-emulsions by broth dilution
Type: cell-based
Procedure: Nine sterile 7 mL PJ tubes were arranged in a rack in a row. Each tube contained one mL sterile MHB. Seven tubes were labeled as 7.847 mg+256 μg/mL, 3.923 mg+128 μg/mL, 1.961 mg+64 μg/mL, 0.980 mg+32 μg/mL, 0.490 mg+16 μg/mL, 0.245 mg+8 μg/mL and 0.122 mg+4 μg/mL. The eighth and ninth tubes were labeled as positive and negative controls, respectively.
The micro-emulsion made according to Example 1 was serially diluted to give two-fold dilutions as follows: one mL of the micro-emulsion of Example 1 was dispensed in the first tube (labeled as 7.847 mg+256 μg/mL) to give a concentration of 15.69 mg+512 μg drug/mL MHB. One mL of the first tube was added to the second tube (labeled as 3.923 mg+128 μg/mL) to give a concentration of 7.847 mg+256 μg drug/mL MHB. One mL of the second tube was transferred to the third tube (labeled as 1.961 mg+64 μg/mL) to give a concentration of 3.923 mg+128 drug/mL MHB. One mL of the third tube was added to the fourth tube (labeled as 0.980 mg+32 μg/mL) to give a concentration of 1.961 mg+64 drug/mL MHB. One mL of the fourth tube was dispensed in the fifth tube (labeled as 0.490 mg+16 μg/mL) to give a concentration of 0.980 mg+32 drug/mL MHB. One mL of the fifth tube was dispensed in the sixth tube (labeled as 0.245 mg+8 μg/mL) to give a concentration of 0.490 mg+16 μg drug/mL MHB. One mL of the sixth tube was added to the seventh tube (labeled as 0.122 mg+4 μg/mL) to give a concentration of 0.245 mg+8 μg drug/mL MHB. One mL of the content of the seventh tube was discarded. Inoculum suspensions (at 1-2×10^8 CFU/mL) were diluted 1:100 in MHB to obtain 1×10^6 CFU/mL. One mL of the diluted inoculum suspension (1×10^6 CFU/mL) was transferred to each tube except tube number nine.
Another nine sterile 7 mL PJ tubes were arranged in a rack in a row. Each tube contained one mL sterile MHB. […]
All inoculated tubes were incubated for 16-20 hours at 37° C. aerobically. After this incubation period, MIC was determined manually by observing the lowest concentration of antimicrobial agent showing no visible growth (turbidity). […]

CC1=CC(=O)C(C(C)C)=CC1=O [Thymoquinone, 2-isopropyl-5-methylbenzo-1,4-quinone]
MIC (Isolate 121): 64 µg/mL | MIC (Isolate 127): 32 µg/mL | MIC (Isolate 129): 32 µg/mL
